Test results reported in patent publication US9382208B1, “Negative allosteric modulators of metabotropic glutamate receptor 2” (Vanderbilt University, priority 2015, dated 2016).

Target: T1, rat mGlu2 (Rattus norvegicus, UniProt P31421)
T1 construct: expressed in transfected cells
Assay: mGlu2 Ca2+ flux assay
Assay type: cell-based
Conditions: for IC50: Gα15 HEK293 cells stably expressing rat mGlu2, glutamate EC80 addition, read-out: rat mGlu2 IC50; for remaining activity at 30 µM: amplitude of response in the presence of 30 μM test compound as percentage of maximal response to glutamate, read-out: rat mGlu2 Glu max (%)
Method: Gα15 HEK293 cells stably expressing rat mGlu2 were plated in black-walled, clear-bottomed, poly-D-lysine coated 384-well plates in 20 μL of assay medium (DMEM containing 10% dialyzed FBS, 20 mM HEPES, and 1 mM sodium pyruvate) at a density of 12K cells/well. The cells were grown overnight at 37° C. in the presence of 5% CO2. The next day, medium was removed and the cells incubated with 20 μL of 2.3 μM Fluo-4, AM prepared as a 2.3 mM stock in DMSO and mixed in a 1:1 ratio with 10% (w/v) pluronic acid F-127 and diluted in assay buffer (Hank's balanced salt solution, 20 mM HEPES, and 2.5 mM probenecid) for 45 minutes at 37° C. Dye was removed, 20 μL of assay buffer was added, and the plate was incubated for 5 minutes at room temperature.
Ca^2+ flux was measured using the Functional Drug Screening System (FDSS7000, Hamamatsu, Japan). After establishment of a fluorescence baseline for about 3 seconds, the compounds of the present invention were added to the cells, and the response in cells was measured. 2.3 minutes later an EC20 concentration of the mGlu2 receptor agonist glutamate was added to the cells, and the response of the cells was measured for 1.9 minutes; an EC80 concentration of agonist was added and readings taken for an additional 1.7 minutes. All test compounds were dissolved and diluted to a concentration of 10 mM in 100% DMSO. Compounds were then serially diluted 1:3 in DMSO into 10 point concentration response curves, transferred to daughter plates, and further diluted into assay buffer to a 2× stock. Calcium fluorescence measures were recorded as fold over basal fluorescence; raw data was then normalized to the maximal response to glutamate. Antagonism of the agonist response of the mGlu2 receptor in the present invention was observed as a decrease in response to nearly maximal concentrations of glutamate in the presence of compound compared to the response to glutamate in the absence of compound.
The raw data file containing all time points was used as the data source in the analysis template. This was saved by the FDSS as a tab-delimited text file. Data were normalized using a static ratio function (F/F0) for each measurement of the total 360 values per well divided by each well's initial value. Data were then reduced to peak amplitudes (Max−Initial Min) using a time range that starts approximately 3 seconds prior to the glutamate EC80 addition and continues for approximately 90 seconds. This is sufficient time to capture the peak amplitude of the cellular calcium response. Individual amplitudes were expressed as % ECMax by multiplying each amplitude by 100 and then dividing the product by the mean of the amplitudes derived from the glutamate ECMax-treated wells. IC50 values for test compounds were generated by fitting the normalized values versus the log of the test compound concentration (in mol/L) using a 4 parameter logistic equation where none of the parameters were fixed. Each of the three values collected at each concentration of test compound were weighted evenly.
For NAMs, potency (IC50) and maximum response (% Glu Max), i.e. the amplitude of response in the presence of 30 μM test compound as a percentage of the maximal response to glutamate, are reported. […] Compounds with no measurable activity are designated as “>30,000 nM” since the top concentration of compound tested in the assay is 30 μM.

T1 sequence (P31421 19-872): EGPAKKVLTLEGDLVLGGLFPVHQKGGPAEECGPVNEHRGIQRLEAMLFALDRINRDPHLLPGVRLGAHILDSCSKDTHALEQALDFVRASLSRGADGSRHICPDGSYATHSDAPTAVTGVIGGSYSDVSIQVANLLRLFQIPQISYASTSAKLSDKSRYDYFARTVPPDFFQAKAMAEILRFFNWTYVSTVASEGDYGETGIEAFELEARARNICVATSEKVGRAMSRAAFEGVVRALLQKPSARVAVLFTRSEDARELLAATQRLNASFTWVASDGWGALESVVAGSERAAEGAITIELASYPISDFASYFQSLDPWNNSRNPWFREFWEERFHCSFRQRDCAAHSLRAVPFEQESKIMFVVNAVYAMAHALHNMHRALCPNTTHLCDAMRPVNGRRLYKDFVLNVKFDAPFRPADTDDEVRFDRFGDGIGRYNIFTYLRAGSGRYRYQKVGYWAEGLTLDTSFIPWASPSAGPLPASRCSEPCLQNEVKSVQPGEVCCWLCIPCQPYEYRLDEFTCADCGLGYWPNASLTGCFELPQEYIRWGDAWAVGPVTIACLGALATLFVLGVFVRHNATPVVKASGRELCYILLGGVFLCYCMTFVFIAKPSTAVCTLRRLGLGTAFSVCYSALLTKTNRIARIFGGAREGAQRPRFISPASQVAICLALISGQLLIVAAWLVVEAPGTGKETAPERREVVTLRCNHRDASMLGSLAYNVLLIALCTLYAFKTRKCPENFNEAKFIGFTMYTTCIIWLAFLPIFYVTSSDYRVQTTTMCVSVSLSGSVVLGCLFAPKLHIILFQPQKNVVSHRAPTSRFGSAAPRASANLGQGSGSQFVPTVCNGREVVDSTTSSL

| Compound | IC50 [nM] | remaining activity at 30 µM [%] |
| --- | --- | --- |
| Cc1ncc(CCc2ccc3c(c2)c(=O)c(C(N)=O)cn3-c2ccc(F)cc2)cn1 [Compound 1, 1-(4-Fluorophenyl)-6-(2-(2-methylpyrimidin-5-yl)ethyl)-4-oxo-1,4-dihydroquinoline-3-carboxamide] | 227 ± 55 | 1.52 ± 0.26 |
| NC(=O)c1cn(-c2ccc(F)cc2)c2ccc(CN3CCSCC3)cc2c1=O [Compound 2, 1-(4-fluorophenyl)-4-oxo-6-(thiomorpholinomethyl)-1,4-dihydroquinoline-3-carboxamide] | 440 ± 97 | 1.52 ± 0.63 |
| NC(=O)c1cn(-c2ccc(F)cc2)c2ccc(CN3CCOCC3)cc2c1=O [Compound 3, 1-(4-fluorophenyl)-6-(morpholinomethyl)-4-oxo-1,4-dihydroquinoline-3-carboxamide] | 3910 | -0.78 |
| NC(=O)c1cn(-c2ccc(F)cc2)c2ccc(CN3CCCCC3)cc2c1=O [Compound 4, 1-(4-fluorophenyl)-4-oxo-6-(piperidin-1-ylmethyl)-1,4-dihydroquinoline-3-carboxamide] | > 10000 | 53.8 |
| NC(=O)c1cn(-c2ccc(F)cc2)c2ccc(CCc3ccccc3)cc2c1=O [Compound 5, 1-(4-fluorophenyl)-4-oxo-6-phenethyl-1,4-dihydroquinoline-3-carboxamide] | ≥ 10000 | 4.65 |
| Cc1ccc(CCc2ccc3c(c2)c(=O)c(C(N)=O)cn3-c2ccc(F)cc2)cc1 [Compound 6, 1-(4-fluorophenyl)-6-(4-methylphenethyl)-4-oxo-1,4-dihydroquinoline-3-carboxamide] | > 10000 | 68.5 |
| Cc1cccc(CCc2ccc3c(c2)c(=O)c(C(N)=O)cn3-c2ccc(F)cc2)c1 [Compound 7, 1-(4-fluorophenyl)-6-(3-methylphenethyl)-4-oxo-1,4-dihydroquinoline-3-carboxamide] | > 10000 | 42.1 |
| Cc1ccccc1CCc1ccc2c(c1)c(=O)c(C(N)=O)cn2-c1ccc(F)cc1 [Compound 8, 1-(4-fluorophenyl)-6-(2-methylphenethyl)-4-oxo-1,4-dihydroquinoline-3-carboxamide] | > 10000 | 18.7 |
| NC(=O)c1cn(-c2ccc(F)cc2)c2ccc(CCc3ccncc3)cc2c1=O [Compound 9, 1-(4-fluorophenyl)-4-oxo-6-(2-(pyridin-4-yl)ethyl)-1,4-dihydroquinoline-3-carboxamide] | 492 ± 97 | 1.88 ± 0.38 |
| NC(=O)c1cn(-c2ccc(F)cc2)c2ccc(CCc3cccnc3)cc2c1=O [Compound 10, 1-(4-fluorophenyl)-4-oxo-6-(2-(pyridin-3-yl)ethyl)-1,4-dihydroquinoline-3-carboxamide] | 482 ± 87 | 1.9 ± 0.11 |
| NC(=O)c1cn(-c2ccc(F)cc2)c2ccc(CCc3ccccn3)cc2c1=O [Compound 11, 1-(4-fluorophenyl)-4-oxo-6-(2-(pyridin-2-yl)ethyl)-1,4-dihydroquinoline-3-carboxamide] | 2590 | 0.92 |
| CN(Cc1cccnc1)c1ccc2c(c1)c(=O)c(C(N)=O)cn2-c1ccc(F)cc1 [Compound 12, 1-(4-fluorophenyl)-6-(methyl(pyridin-3-ylmethyl)amino)-4-oxo-1,4-dihydroquinoline-3-carboxamide] | 202 ± 14 | 2.39 ± 0.13 |
| COc1ccc(-n2cc(C(N)=O)c(=O)c3cc(CCc4cnc(C)nc4)ccc32)c(F)c1 [Compound 13, 1-(2-fluoro-4-methoxyphenyl)-6-(2-(2-methylpyrimidin-5-yl)ethyl)-4-oxo-1,4-dihydroquinoline-3-carboxamide] | 311 | 1.14 |
| COc1ccc(-n2cc(C(N)=O)c(=O)c3cc(CCc4cnc(C)nc4)ccc32)cc1F [Compound 14, 1-(3-fluoro-4-methoxyphenyl)-6-(2-(2-methylpyrimidin-5-yl)ethyl)-4-oxo-1,4-dihydroquinoline-3-carboxamide] | 252 | 1.15 |
| COc1ccc(-n2cc(C(N)=O)c(=O)c3cc(CCc4cnc(C)nc4)ccc32)cc1 [Compound 15, 1-(4-methoxyphenyl)-6-(2-(2-methylpyrimidin-5-yl)ethyl)-4-oxo-1,4-dihydroquinoline-3-carboxamide] | 139 | 1.61 |
| NC(=O)c1cn(-c2ccc(F)cc2)c2ccc(Nc3cccnc3)cc2c1=O [Compound 16, 1-(4-fluorophenyl)-4-oxo-6-(pyridin-3-ylamino)-1,4-dihydroquinoline-3-carboxamide] | 433 | 1.77 |
| NC(=O)c1cn(-c2ccc(F)cc2)c2ccc(NCc3cccnc3)cc2c1=O [Compound 17, 1-(4-fluorophenyl)-4-oxo-6-((pyridin-3-ylmethyl)amino)-1,4-dihydroquinoline-3-carboxamide] | 421 | 1.05 |
| CN(c1ccncc1)c1ccc2c(c1)c(=O)c(C(N)=O)cn2-c1ccc(F)cc1 [Compound 18, 1-(4-fluorophenyl)-6-(methyl(pyridin-4-yl)amino)-4-oxo-1,4-dihydroquinoline-3-carboxamide] | 1150 | 1.73 |
| CN(Cc1ccncc1)c1ccc2c(c1)c(=O)c(C(N)=O)cn2-c1ccc(F)cc1 [Compound 19, 1-(4-fluorophenyl)-6-(methyl(pyridin-4-ylmethyl)amino)-4-oxo-1,4-dihydroquinoline-3-carboxamide] | 224 | 1.02 |
| CN(c1cccnc1)c1ccc2c(c1)c(=O)c(C(N)=O)cn2-c1ccc(F)cc1 [Compound 20, 1-(4-fluorophenyl)-6-(methyl(pyridin-3-yl)amino)-4-oxo-1,4-dihydroquinoline-3-carboxamide] | 155 | 1.33 |
| Cc1ccc(COc2ccc3c(c2)c(=O)c(C(N)=O)cn3-c2ccc(F)cc2)cn1 [Compound 21, 1-(4-fluorophenyl)-6-((6-methylpyridin-3-yl)methoxy)-4-oxo-1,4-dihydroquinoline-3-carboxamide] | 541 ± 116 | 1.55 ± 0.39 |
| Cc1cc(-n2cc(C(N)=O)c(=O)c3cc(CCc4cnc(C)nc4)ccc32)sn1 [Compound 22, 1-(3-methylisothiazol-5-yl)-6-(2-(2-methylpyrimidin-5-yl)ethyl)-4-oxo-1,4-dihydroquinoline-3-carboxamide] | 419 ± 46 | 1.2 ± 0.5 |
| CC(Oc1ccc2c(c1)c(=O)c(C(N)=O)cn2-c1ccc(F)cc1)c1ccncc1 (stereo not drawn) [Compound 23, 1-(4-fluorophenyl)-4-oxo-6-(1-(pyridin-4-yl)ethoxy)-1,4-dihydroquinoline-3-carboxamide] | 460 ± 62 | 1.07 ± 0.13 |
| Cc1cc(COc2ccc3c(c2)c(=O)c(C(N)=O)cn3-c2ccc(F)cc2)ccn1 [Compound 24, 1-(4-fluorophenyl)-6-((2-methylpyridin-4-yl)methoxy)-4-oxo-1,4-dihydroquinoline-3-carboxamide] | 422 ± 94 | 1.09 ± 0.16 |
| NC(=O)c1cn(-c2ccc(F)cc2)c2ccc(OCc3ccncc3)cc2c1=O [Compound 25, 1-(4-fluorophenyl)-4-oxo-6-(pyridin-4-ylmethoxy)-1,4-dihydroquinoline-3-carboxamide] | 1230 | 0.97 |
| NC(=O)c1cn(-c2ccc(F)cc2)c2ccc(NCCc3ccncc3)cc2c1=O [Compound 26, 1-(4-fluorophenyl)-4-oxo-6-((2-(pyridin-4-yl)ethyl)amino)-1,4-dihydroquinoline-3-carboxamide] | 444 | 1.91 |
| NC(=O)c1cn(-c2ccc(F)cc2)c2ccc(NCCc3cccnc3)cc2c1=O [Compound 27, 1-(4-fluorophenyl)-4-oxo-6-((2-(pyridin-3-yl)ethyl)amino)-1,4-dihydroquinoline-3-carboxamide] | 391 | 1.75 |
